Results as given in the supplement of paper PMC10307832.

Legend:
Test in all cases: relative viability (nuclei count vs DMSO), 5 days (fraction); higher = more cells survive
NCI-H1299 = system: NCI-H1299
Procedure, shortened: (§1)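 Lung cancer cell lines in 1536-well plates were dosed by pin tool the day after seeding, either with one drug alone or with a fixed anchor-drug dose plus five library-drug doses (not always all listed) in √10 steps. After 5 days, cells were fixed and their nuclei stained in one step (final 0.05% Triton X-100, 1% formaldehyde, 1 ug/ml Hoechst), then counted on 4× images. Relative viability is the nuclei count in treated wells divided by that in vehicle wells. Values are medians of duplicate plates.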

PC-3 [JPC-3] = system: PC-3 [JPC-3]
Procedure, shortened: as §1

EBC-1 = system: EBC-1
Procedure, shortened: as §1

IA-LM = system: IA-LM
Procedure, shortened: as §1

NCI-H1651 = system: NCI-H1651
Procedure, shortened: as §1

NCI-H1944 = system: NCI-H1944
Procedure, shortened: as §1

RERF-LC-KJ = system: RERF-LC-KJ
Procedure, shortened: as §1

Calu-6 = system: Calu-6
Procedure, shortened: as §1

A549 = system: A549
Procedure, shortened: as §1

NCI-H838 = system: NCI-H838
Procedure, shortened: as §1

NCI-H1703 = system: NCI-H1703
Procedure, shortened: as §1

NCI-H520 = system: NCI-H520
Procedure, shortened: as §1

NCI-H650 = system: NCI-H650
Procedure, shortened: as §1

`Nc1ccn([C@@H]2O[C@H](CO)[C@@H](O)[C@@H]2O)c(=O)n1` [Cytarabine] + CC1(C)CCC(c2ccc(Cl)cc2)=C(CN2CCN(c3ccc(C(=O)NS(=O)(=O)c4ccc(N[C@H](CCN5CCOCC5)CSc5ccccc5)c(S(=O)(=O)C(F)(F)F)c4)cc3)CC2)C1 [Navitoclax] (partner 0.5 µM) showed a relative viability (NCI-H1299; first compound 0.005 µM) of 1.09, a relative viability (NCI-H1299; first compound 0.01581 µM) of 1.13 and a relative viability (NCI-H1299; first compound 0.05 µM) of 1.08. The relative viability (NCI-H1299; first compound 0.1581 µM) was 1.02, the relative viability (NCI-H1299; first compound 0.5 µM) was 0.989 and the relative viability (PC-3 [JPC-3]; first compound 0.005 µM) was 0.753. The relative viability (PC-3 [JPC-3]; first compound 0.01581 µM) was 0.774, the relative viability (PC-3 [JPC-3]; first compound 0.05 µM) was 0.7 and the relative viability (PC-3 [JPC-3]; first compound 0.1581 µM) was 0.605. For the same molecule, the relative viability (PC-3 [JPC-3]; first compound 0.5 µM) was 0.556, the relative viability (EBC-1; first compound 0.005 µM) was 0.304 and the relative viability (EBC-1; first compound 0.01581 µM) was 0.281. The relative viability (EBC-1; first compound 0.05 µM) was 0.233, the relative viability (EBC-1; first compound 0.1581 µM) was 0.222 and the relative viability (EBC-1; first compound 0.5 µM) was 0.165. The relative viability (IA-LM; first compound 0.005 µM) was 0.917, the relative viability (IA-LM; first compound 0.01581 µM) was 0.603 and the relative viability (IA-LM; first compound 0.05 µM) was 0.64. It also gave a relative viability (IA-LM; first compound 0.1581 µM) of 0.279, a relative viability (IA-LM; first compound 0.5 µM) of 0.151 and a relative viability (NCI-H1651; first compound 0.005 µM) of 0.993. The relative viability (NCI-H1651; first compound 0.01581 µM) was 1.18, the relative viability (NCI-H1651; first compound 0.05 µM) was 1.24 and the relative viability (NCI-H1651; first compound 0.1581 µM) was 0.625. It also gave a relative viability (NCI-H1651; first compound 0.5 µM) of 0.3, a relative viability (NCI-H1944; first compound 0.005 µM) of 0.605 and a relative viability (NCI-H1944; first compound 0.01581 µM) of 0.363. For the same molecule, the relative viability (NCI-H1944; first compound 0.05 µM) was 0.268, the relative viability (NCI-H1944; first compound 0.1581 µM) was 0.198 and the relative viability (NCI-H1944; first compound 0.5 µM) was 0.201. It also gave a relative viability (RERF-LC-KJ; first compound 0.005 µM) of 0.772, a relative viability (RERF-LC-KJ; first compound 0.01581 µM) of 1.02 and a relative viability (RERF-LC-KJ; first compound 0.05 µM) of 1.08. It also gave a relative viability (RERF-LC-KJ; first compound 0.1581 µM) of 0.509, a relative viability (RERF-LC-KJ; first compound 0.5 µM) of 0.325 and a relative viability (Calu-6; first compound 0.005 µM) of 0.831. The relative viability (Calu-6; first compound 0.01581 µM) was 0.796, the relative viability (Calu-6; first compound 0.05 µM) was 0.9 and the relative viability (Calu-6; first compound 0.1581 µM) was 0.338. For the same molecule, the relative viability (Calu-6; first compound 0.5 µM) was 0.22, the relative viability (A549; first compound 0.005 µM) was 0.969 and the relative viability (A549; first compound 0.01581 µM) was 0.588. It also gave a relative viability (A549; first compound 0.05 µM) of 0.476, a relative viability (A549; first compound 0.1581 µM) of 0.0384 and a relative viability (A549; first compound 0.5 µM) of 0.0234. The relative viability (NCI-H838; first compound 0.005 µM) was 1.29, the relative viability (NCI-H838; first compound 0.01581 µM) was 1.18 and the relative viability (NCI-H838; first compound 0.05 µM) was 0.816. It also gave a relative viability (NCI-H838; first compound 0.1581 µM) of 0.446, a relative viability (NCI-H838; first compound 0.5 µM) of 0.262 and a relative viability (NCI-H1703; first compound 0.005 µM) of 0.717. The relative viability (NCI-H1703; first compound 0.01581 µM) was 0.365, the relative viability (NCI-H1703; first compound 0.05 µM) was 0.244 and the relative viability (NCI-H1703; first compound 0.1581 µM) was 0.135. It also gave a relative viability (NCI-H1703; first compound 0.5 µM) of 0.105, a relative viability (NCI-H520; first compound 0.005 µM) of 0.955 and a relative viability (NCI-H520; first compound 0.01581 µM) of 0.902. The relative viability (NCI-H520; first compound 0.05 µM) was 1.14, the relative viability (NCI-H520; first compound 0.1581 µM) was 0.904 and the relative viability (NCI-H520; first compound 0.5 µM) was 0.781.
Molecule `Nc1ccn([C@@H]2O[C@H](CO)[C@@H](O)[C@@H]2O)c(=O)n1` [Cytarabine] + CC(C)C[C@H](NC(=O)[C@H](Cc1ccccc1)NC(=O)c1cnccn1)B(O)O [Bortezomib] (partner 0.002 µM) has a relative viability (NCI-H1299; first compound 0.005 µM) of 1.01, a relative viability (NCI-H1299; first compound 0.01581 µM) of 1.09 and a relative viability (NCI-H1299; first compound 0.05 µM) of 1.05. For the same molecule, the relative viability (NCI-H1299; first compound 0.1581 µM) was 1.03, the relative viability (NCI-H1299; first compound 0.5 µM) was 1 and the relative viability (PC-3 [JPC-3]; first compound 0.005 µM) was 0.811. The relative viability (PC-3 [JPC-3]; first compound 0.01581 µM) was 0.795, the relative viability (PC-3 [JPC-3]; first compound 0.05 µM) was 0.779 and the relative viability (PC-3 [JPC-3]; first compound 0.1581 µM) was 0.503. The relative viability (PC-3 [JPC-3]; first compound 0.5 µM) was 0.511, the relative viability (NCI-H650; first compound 0.005 µM) was 0.606 and the relative viability (NCI-H650; first compound 0.01581 µM) was 0.486. It also gave a relative viability (NCI-H650; first compound 0.05 µM) of 0.349, a relative viability (NCI-H650; first compound 0.1581 µM) of 0.223 and a relative viability (NCI-H650; first compound 0.5 µM) of 0.209. It also gave a relative viability (EBC-1; first compound 0.005 µM) of 0.543, a relative viability (EBC-1; first compound 0.01581 µM) of 0.49 and a relative viability (EBC-1; first compound 0.05 µM) of 0.515. The relative viability (EBC-1; first compound 0.1581 µM) was 0.341, the relative viability (EBC-1; first compound 0.5 µM) was 0.326 and the relative viability (IA-LM; first compound 0.005 µM) was 0.739. For the same molecule, the relative viability (IA-LM; first compound 0.01581 µM) was 0.663, the relative viability (IA-LM; first compound 0.05 µM) was 0.648 and the relative viability (IA-LM; first compound 0.1581 µM) was 0.411. For the same molecule, the relative viability (IA-LM; first compound 0.5 µM) was 0.165, the relative viability (NCI-H1651; first compound 0.005 µM) was 1.09 and the relative viability (NCI-H1651; first compound 0.01581 µM) was 0.916. For the same molecule, the relative viability (NCI-H1651; first compound 0.05 µM) was 0.808, the relative viability (NCI-H1651; first compound 0.1581 µM) was 0.7 and the relative viability (NCI-H1651; first compound 0.5 µM) was 0.663. For the same molecule, the relative viability (RERF-LC-KJ; first compound 0.005 µM) was 1.01, the relative viability (RERF-LC-KJ; first compound 0.01581 µM) was 0.91 and the relative viability (RERF-LC-KJ; first compound 0.05 µM) was 0.974. The relative viability (RERF-LC-KJ; first compound 0.1581 µM) was 0.68, the relative viability (RERF-LC-KJ; first compound 0.5 µM) was 0.472 and the relative viability (Calu-6; first compound 0.005 µM) was 0.864. For the same molecule, the relative viability (Calu-6; first compound 0.01581 µM) was 0.794, the relative viability (Calu-6; first compound 0.05 µM) was 0.749 and the relative viability (Calu-6; first compound 0.1581 µM) was 0.609. It also gave a relative viability (Calu-6; first compound 0.5 µM) of 0.356, a relative viability (NCI-H838; first compound 0.005 µM) of 0.802 and a relative viability (NCI-H838; first compound 0.01581 µM) of 0.615. For the same molecule, the relative viability (NCI-H838; first compound 0.05 µM) was 0.506, the relative viability (NCI-H838; first compound 0.1581 µM) was 0.242 and the relative viability (NCI-H838; first compound 0.5 µM) was 0.21. The relative viability (NCI-H1703; first compound 0.005 µM) was 0.321, the relative viability (NCI-H1703; first compound 0.01581 µM) was 0.172 and the relative viability (NCI-H1703; first compound 0.05 µM) was 0.145. For the same molecule, the relative viability (NCI-H1703; first compound 0.1581 µM) was 0.117, the relative viability (NCI-H1703; first compound 0.5 µM) was 0.134 and the relative viability (NCI-H520; first compound 0.005 µM) was 0.412. The relative viability (NCI-H520; first compound 0.01581 µM) was 0.363, the relative viability (NCI-H520; first compound 0.05 µM) was 0.697 and the relative viability (NCI-H520; first compound 0.1581 µM) was 0.468. For the same molecule, the relative viability (NCI-H520; first compound 0.5 µM) was 0.34.
